As a reminder, the IC50 is the concentration that inhibits the measured activity by half.

The assay deals with Recombinant human KIF18A (1-467 His-tagged) protein (Homo sapiens (Human), UniProt Q8NI77). As to the kind of experiment: KIF18A Enzyme Assay: microtubule-stimulated ATPase activity (ADP-Glo). To be noted: read-out: KIF18A ATPase IC50; 30 nM KIF18A, 30 μg/mL pig microtubules, ATP at Km 75 μM, ADP-Glo luminescence. In general terms: In ADP-Glo the light output rises with the ADP produced.
Sequence of Recombinant human KIF18A (1-467 His-tagged) protein (Q8NI77 1-467): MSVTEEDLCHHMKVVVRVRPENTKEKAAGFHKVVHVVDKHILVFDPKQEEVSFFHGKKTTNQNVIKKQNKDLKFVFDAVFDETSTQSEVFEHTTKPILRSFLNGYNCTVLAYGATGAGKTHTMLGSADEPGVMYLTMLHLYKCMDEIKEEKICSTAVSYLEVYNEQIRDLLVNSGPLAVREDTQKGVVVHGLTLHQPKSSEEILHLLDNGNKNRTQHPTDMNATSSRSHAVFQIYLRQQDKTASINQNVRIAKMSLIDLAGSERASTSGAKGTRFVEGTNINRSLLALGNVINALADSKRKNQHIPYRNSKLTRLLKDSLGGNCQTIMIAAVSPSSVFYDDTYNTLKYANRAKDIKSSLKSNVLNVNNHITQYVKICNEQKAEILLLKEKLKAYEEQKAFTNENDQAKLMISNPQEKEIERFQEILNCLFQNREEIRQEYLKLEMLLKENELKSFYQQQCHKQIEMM
Sequence of Recombinant human KIF18A (1-467 His-tagged) protein (P02550 whole entry partner): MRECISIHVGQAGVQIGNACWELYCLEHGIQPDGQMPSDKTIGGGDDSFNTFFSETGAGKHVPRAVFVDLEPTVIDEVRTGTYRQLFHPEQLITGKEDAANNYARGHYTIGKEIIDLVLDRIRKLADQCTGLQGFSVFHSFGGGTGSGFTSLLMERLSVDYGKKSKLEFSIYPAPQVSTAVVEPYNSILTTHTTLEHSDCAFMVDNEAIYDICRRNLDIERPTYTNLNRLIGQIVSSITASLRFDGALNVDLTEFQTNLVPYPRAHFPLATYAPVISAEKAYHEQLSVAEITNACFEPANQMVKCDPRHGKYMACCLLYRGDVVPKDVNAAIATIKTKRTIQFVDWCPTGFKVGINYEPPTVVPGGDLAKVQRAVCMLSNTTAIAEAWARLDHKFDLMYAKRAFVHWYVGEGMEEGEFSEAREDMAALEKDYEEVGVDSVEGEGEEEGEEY
Sequence of Recombinant human KIF18A (1-467 His-tagged) protein (P02554 whole entry partner): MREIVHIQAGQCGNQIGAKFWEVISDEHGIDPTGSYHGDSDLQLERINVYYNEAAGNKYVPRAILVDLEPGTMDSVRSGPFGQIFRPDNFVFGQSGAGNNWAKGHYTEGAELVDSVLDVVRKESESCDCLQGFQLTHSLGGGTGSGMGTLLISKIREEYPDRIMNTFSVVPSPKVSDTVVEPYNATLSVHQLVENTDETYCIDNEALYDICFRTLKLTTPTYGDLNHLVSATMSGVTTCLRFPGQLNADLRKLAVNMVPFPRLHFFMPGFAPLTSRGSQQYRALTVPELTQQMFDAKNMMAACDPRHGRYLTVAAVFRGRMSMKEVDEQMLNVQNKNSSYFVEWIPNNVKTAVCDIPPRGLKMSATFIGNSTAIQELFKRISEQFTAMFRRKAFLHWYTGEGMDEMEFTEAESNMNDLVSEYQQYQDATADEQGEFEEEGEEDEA
Text: KIF18A Enzyme Assay: Microtubule-stimulated ATPase activity assay is used to measure KIF18A enzyme activity after treatment with compound. Compounds were 2-fold serially diluted in DMSO (Sigma Inc) over 22-point concentration range. […] The assay measures ADP formed from the ATPase reaction.
In the case of `Cc1cc(NC(=O)c2ccc(NS(=O)(=O)CCO)cc2N2CCC3(CC2)CC3)cc(N2CCO[C@H](C)C2)n1` [Example 11-66], the IC50 amounted to 148 nM.

Turning to `Cc1cc(NC(=O)c2cc(F)c(NS(=O)(=O)CCO)cc2N2CCC3(CC2)CC3)nc(N2CCC(F)(F)CC2)n1` [Example 11-67, N-(2-(4,4-Difluoropiperidin-1-yl)-6-methylpyrimidin-4-yl)-5-fluoro-4-((2-hydroxyethyl)sulfonamido)-2-(6-azaspiro[2.5]octan-6-yl)benzamide], the 50% inhibitory concentration (IC50) was found to be 34 nM.

`Cc1cc(NC(=O)c2ccc(NS(=O)(=O)C3(CO)CC3)cc2N2CCC3(CC2)CC3)nc(N2CC(F)(F)C2)n1` [Example 11-68, N-(2-(3,3-Difluoroazetidin-1-yl)-6-methylpyrimidin-4-yl)-4-((1-(hydroxymethyl)cyclopropane)-1-sulfonamido)-2-(6-azaspiro[2.5]octan-6-yl)benzamide]: the IC50 came out at 53 nM.

For `Cc1cc(NC(=O)c2ccc(NS(=O)(=O)C3(CO)CC3)cc2N2CCC3(CC2)CC3)nc(N2CCC(F)(F)CC2)n1` [Example 11-69], the IC50 stood at 99 nM.

As for `Cc1cc(NC(=O)c2ccc(NS(=O)(=O)[C@H]3CCOC3)cc2N2CCC3(CC2)CC3)nc(N2CC(F)(F)C2)n1` [Example 11-70, (S)-N-(2-(3,3-Difluoroazetidin-1-yl)-6-methylpyrimidin-4-yl)-2-(6-azaspiro[2.5]octan-6-yl)-4-((tetrahydrofuran)-3-sulfonamido)benzamide], the IC50 turned out to be 72 nM.

For `Cc1cc(NC(=O)c2ccc(NS(=O)(=O)[C@H]3CCOC3)cc2N2CCC3(CC2)CC3)nc(N2CCC(F)(F)CC2)n1` [Example 11-72, (S)-N-(2-(4,4-Difluoropiperidin-1-yl)-6-methylpyrimidin-4-yl)-2-(6-azaspiro[2.5]octan-6-yl)-4-((tetrahydrofuran)-3-sulfonamido)benzamide], the IC50 is 135 nM.

For `Cc1cc(NC(=O)c2ccc(NS(=O)(=O)C3(C)CC3)cc2N2CCC3(CC2)CC3)nc(N2CC(F)(F)C2)n1` [Example 11-74, N-(2-(3,3-Difluoroazetidin-1-yl)-6-methylpyrimidin-4-yl)-4-((1-methylcyclopropane)-1-sulfonamido)-2-(6-azaspiro[2.5]octan-6-yl)benzamide], the half-maximal inhibitory concentration (IC50) worked out at 94 nM.

`Cc1cc(NC(=O)c2ccc(NS(=O)(=O)C(C)C)cc2N2CCC3(CC2)CC3)nc(N2CC(F)(F)C2)n1` [Example 11-75, N-(2-(3,3-Difluoroazetidin-1-yl)-6-methylpyrimidin-4-yl)-4-((1-methylethyl)sulfonamido)-2-(6-azaspiro[2.5]octan-6-yl)benzamide]: the IC50 came out at 56 nM.

On to `Cc1cc(NC(=O)c2ccc(NS(=O)(=O)[C@@H](C)CO)cc2N2CCC3(CC2)CC3)nc(N2CC(F)(F)C2)n1` [Example 11-77, (S)-N-(2-(3,3-Difluoroazetidin-1-yl)-6-methylpyrimidin-4-yl)-4-((2-hydroxy-1-methylethyl)sulfonamido)-2-(6-azaspiro[2.5]octan-6-yl)benzamide], for which the IC50 was determined as 34 nM.

With `Cc1cc(NC(=O)c2ccc(NS(=O)(=O)CC3CC3)cc2N2CCC3(CC2)CC3)nc(N2CC(F)(F)C2)n1` [Example 11-78, 4-((Cyclopropylmethyl)sulfonamido)-N-(2-(3,3-difluoroazetidin-1-yl)-6-methylpyrimidin-4-yl)-2(6-azaspiro[2.5]octan-6-yl)benzamide], the IC50 was 125 nM.

Turning to `Cc1cc(NC(=O)c2ccc(NS(=O)(=O)CCO)cc2N2CCC3(CC2)CC3)nc(OC(C)C)n1` [Example 11-79, 4-((2-Hydroxyethyl)sulfonamido)-N-(2-isopropoxy-6-methylpyrimidin-4-yl)-2-(6-azaspiro[2.5]octan-6-yl)benzamide], the IC50 came to 57 nM.

`Cc1cc(NC(=O)c2ccc(NS(=O)(=O)CCO)cc2N2CCC3(CC2)CC3)nc(O[C@@H]2CCOC2)n1` [Example 11-80, (R)-4-((2-Hydroxyethyl)sulfonamido)-N-(6-methyl-2-((tetrahydrofuran-3-yl)oxy)pyrimidin-4-yl)-2-(6-azaspiro[2.5]octan-6-yl)benzamide]: the IC50 turned out to be 117 nM.

On to `Cc1cc(NC(=O)c2ccc(NS(C)(=O)=O)cc2N2CCC3(CC2)CC3)nc(N2CCC(F)CC2)n1` [Example 11-81, N-(2-(4-Fluoropiperidin-1-yl)-6-methylpyrimidin-4-yl)-4-(methylsulfonamido)-2-(6-azaspiro[2.5]octan-6-yl)benzamide], for which the IC50 is 60 nM.

Regarding `CCS(=O)(=O)Nc1ccc(C(=O)Nc2cc(C)nc(N3CCC(F)CC3)n2)c(N2CCC3(CC2)CC3)c1` [Example 11-82, 4-(Ethylsulfonamido)-N-(2-(4-fluoropiperidin-1-yl)-6-methylpyrimidin-4-yl)-2-(6-azaspiro[2.5]octan-6-yl)benzamide], the IC50 amounted to 51 nM.

Regarding `Cc1cc(NC(=O)c2ccc(NS(=O)(=O)C(C)(C)C)cc2N2CCC3(CC2)CC3)nc(N2CC(F)(F)C2)n1` [Example 11-83, N-(2-(3,3-Difluoroazetidin-1-yl)-6-methylpyrimidin-4-yl)-4-((1,1-dimethylethyl)sulfonamido)-2-(6-azaspiro[2.5]octan-6-yl)benzamide], the concentration for half-maximal inhibition (IC50) was found to be 98 nM.

For `Cc1cc(NC(=O)c2ccc(S(=O)(=O)C3COC3)cc2N2CCC3(CC2)CC3)nc(N2CCC(F)(F)CC2)n1` [Example 14-1, N-(2-(4,4-Difluoropiperidin-1-yl)-6-methylpyrimidin-4-yl)-4-(oxetan-3-ylsulfonyl)-2-(6-azaspiro[2.5]octan-6-yl)benzamide], the IC50 was 182 nM.

In the case of `CCS(=O)(=O)c1ccc(C(=O)Nc2cc(C)nc(N3CCC(F)(F)CC3)n2)c(N2CCC3(CC2)CC3)c1` [Example 14-2, N-(2-(4,4-Difluoropiperidin-1-yl)-6-methylpyrimidin-4-yl)-4-(ethylsulfonyl)-2-(6-azaspiro[2.5]octan-6-yl)benzamide], the IC50 was found to be 108 nM.

`Cc1cc(NC(=O)c2ccc(S(=O)(=O)C(C)C)cc2N2CCC3(CC2)CC3)nc(N2CCC(F)(F)CC2)n1` [Example 14-3, N-(2-(4,4-Difluoropiperidin-1-yl)-6-methylpyrimidin-4-yl)-4-(isopropylsulfonyl)-2-(6-azaspiro[2.5]octan-6-yl)benzamide]: the IC50 worked out at 128 nM.

Take `Cc1cc(NC(=O)c2ccc(S(=O)(=O)CC(C)(C)O)cc2N2CCC3(CC2)CC3)nc(N2CCC(F)(F)CC2)n1` [Example 14-4, N-(2-(4,4-Difluoropiperidin-1-yl)-6-methylpyrimidin-4-yl)-4-((2-hydroxy-2-methylpropyl)sulfonyl)-2-(6-azaspiro[2.5]octan-6-yl)benzamide]: the IC50 was 806 nM.

Consider `Cc1cc(NC(=O)c2ccc(S(=O)(=O)C3CC3)cc2N2CCC3(CC2)CC3)nc(N2CCC(F)(F)CC2)n1` [Example 14-5, 4-(Cyclopropylsulfonyl)-N-(2-(4,4-difluoropiperidin-1-yl)-6-methylpyrimidin-4-yl)-2-(6-azaspiro[2.5]octan-6-yl)benzamide], for which the IC50 turned out to be 826 nM.

On to `Cc1cc(NC(=O)c2ccc(S(=O)(=O)C(C)(C)C)cc2N2CCC3(CC2)CC3)nc(N2CCC(F)(F)CC2)n1` [Example 14-6, 4-(tert-Butylsulfonyl)-N-(2-(4,4-difluoropiperidin-1-yl)-6-methylpyrimidin-4-yl)-2-(6-azaspiro[2.5]octan-6-yl)benzamide], for which the IC50 was determined as 1880 nM.

Turning to `Cc1cc(NC(=O)c2ccc(S(=O)(=O)[C@@H]3COC[C@H]3O)cc2N2CCC3(CC2)CC3)nc(N2CCC(F)(F)CC2)n1` [Example 14-7, N-(2-(4,4-Difluoropiperidin-1-yl)-6-methylpyrimidin-4-yl)-4-(((3R,4R)-4-hydroxytetrahydrofuran-3-yl)sulfonyl)-2-(6-azaspiro[2.5]octan-6-yl)benzamide], the IC50 is 94 nM.

`Cc1cc(NC(=O)c2ccc(S(=O)(=O)[C@H]3COC[C@@H]3O)cc2N2CCC3(CC2)CC3)nc(N2CCC(F)(F)CC2)n1` [Example 14-8, N-(2-(4,4-Difluoropiperidin-1-yl)-6-methylpyrimidin-4-yl)-4-(((S,4S)-4-hydroxytetrahydrofuran-3-yl)sulfonyl)-2-(6-azaspiro[2.5]octan-6-yl)benzamide]: the IC50 is 97 nM.

`Cc1cc(NC(=O)c2ccc(S(=O)(=O)[C@@H]3CCC[C@H]3O)cc2N2CCC3(CC2)CC3)nc(N2CCC(F)(F)CC2)n1` [Example 14-9, N-(2-(4,4-Difluoropiperidin-1-yl)-6-methylpyrimidin-4-yl)-4-(((1R,2R)-2-hydroxycyclopentyl)sulfonyl)-2-(6-azaspiro[2.5]octan-6-yl)benzamide]: the IC50 is 195 nM.

Turning to `Cc1cc(NC(=O)c2ccc(NS(=O)(=O)[C@H](CO)CF)cc2N2CCC3(CC2)CC3)nc(N2CCC(F)(F)CC2)n1` [Example 16-1, (R)-N-(2-(4,4-Difluoropiperidin-1-yl)-6-methylpyrimidin-4-yl)-4-((2-fluoro-1-(hydroxymethyl)ethyl)sulfonamido)-2-(6-azaspiro[2.5]octan-6-yl)benzamide], the IC50 came out at 89 nM.

Consider `Cc1cc(NC(=O)c2ccc(NS(=O)(=O)[C@@H](CO)CF)cc2N2CCC3(CC2)CC3)nc(N2CCC(F)(F)CC2)n1` [Example 16-2, (S)-N-(2-(4,4-Difluoropiperidin-1-yl)-6-methylpyrimidin-4-yl)-4-((2-fluoro-1-(hydroxymethyl)ethyl)sulfonamido)-2-(6-azaspiro[2.5]octan-6-yl)benzamide], for which the IC50 was 96 nM.

In the case of `O=C(Nc1ccnc(N2CCC(F)(F)CC2)c1)c1ccc(S(=O)(=O)NCCO)cc1N1CCC2(CC1)CC2` [Example 17, N-(2-(4,4-Difluoropiperidin-1-yl)pyridin-4-yl)-4-(N-(2-hydroxyethyl)sulfamoyl)-2-(6-azaspiro[2.5]octan-6-yl)benzamide], the IC50 was 23 nM.

Consider `O=C(Nc1ccnc(OCCC(F)(F)F)n1)c1ccc(S(=O)(=O)NCCO)cc1N1CCC2(CC1)CC2` [Example 17-1, 4-(N-(2-Hydroxyethyl)sulfamoyl)-2-(6-azaspiro[2.5]octan-6-yl)-N-(2-(3,3,3-trifluoropropoxy)pyrimidin-4-yl)benzamide], for which the IC50 is 27 nM.
